According to paper PMC6859807 (Journal of Experimental Botany, 2019):
Residues, ends and D or L forms follow the SMILES beside them. *: point of attachment. AMC = Cc1cc(=O)oc2cc(N*)ccc12; Cbz = O=C(OCc1ccccc1)*

Target: recombinant HvPAP14 (HvPAP14:MBP) (Hordeum vulgare, UniProt B4ESF2)
Test: fluorogenic cleavage, ratio of […] nm / […] nm emission
Type: biochemical
Conditions: 20 uM substrate, pH 3.5-9; enzyme activated at pH 4.5

Sequence of recombinant HvPAP14 (HvPAP14:MBP) (B4ESF2 30-367): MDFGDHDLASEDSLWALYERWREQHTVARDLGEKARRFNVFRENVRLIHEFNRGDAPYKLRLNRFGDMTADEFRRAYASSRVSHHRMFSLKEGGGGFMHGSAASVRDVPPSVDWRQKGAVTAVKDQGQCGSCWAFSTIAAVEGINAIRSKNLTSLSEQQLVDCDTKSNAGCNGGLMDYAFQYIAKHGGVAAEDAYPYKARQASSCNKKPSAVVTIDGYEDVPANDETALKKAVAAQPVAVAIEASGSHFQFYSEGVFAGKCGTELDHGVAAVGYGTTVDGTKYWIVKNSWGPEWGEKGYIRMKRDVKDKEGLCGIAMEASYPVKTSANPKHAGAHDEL

With Cc1cc(=O)oc2cc(NC(=O)[C@H](CCCNC(=N)N)NC(=O)[C@H](Cc3ccccc3)NC(=O)OCc3ccccc3)ccc12 [Z-FR-AMC] (Cbz-Phe-Arg-{AMC}) the “fluorogenic cleavage, ratio of 440 nm / 393 nm emission” value was “activity of the recombinant protein was therefore tested at different pH values using the fluorescent”.
